Experimental data published in patent US6863211B2, “Omega-hydrofluoroalkyl ethers, precursor carboxylic acids and derivatives thereof, and their preparation and application” (3M Innovative Properties Company, priority 1994, dated 2005).

Legend:
[1] = Fire extinguishing agent evaluation, NFPA 2001 standard, modified cup burner; details: cup burner modified to handle liquid compounds
Procedure: Omega-hydrofluoroalkyl ether compounds of this invention were evaluated as fire extinguishing agents using the National Fire Protection Association 2001 Fire Protection Standard, with a cup burner modified to handle liquid compounds. The results, shown below in Table D, indicate that the compounds could be effective agents for fire extinguishing, explosion suppression, and as flammable atmosphere inerting agents.

[2] = Spot-free drying: water displacement from glass and stainless steel coupons; details: 0.2% by weight C4F9OC2F4OCF2CONHC2H4OH dissolved in the ether, 45° C., ultrasonic agitation
Procedure: A sample of the compound was also evaluated for use in spot-free drying applications such as taught in U.S. Pat. No. 5,125,978 (Flynn et al.). A water displacement composition was prepared by dissolving 0.2% by weight of C4F9OC2F4OCF2CONHC2H4OH in C4F9—O—C2F4H. The solution was heated to 45° C. in an ultrasonic bath. Using the procedure described in U.S. Pat. No. 5,125,978, test coupons of glass and stainless steel were wetted with water and subsequently immersed into this solution with ultrasonic agitation. All water was displaced within 60 seconds.

[3] = Rinse agent in co-solvent cleaning of oil-contaminated aluminum coupon; details: 50° C., about 60 seconds methyl decanoate then about 60 seconds rinse agent, aluminum coupon with light hydrocarbon oil
Procedure: A sample of this compound was also evaluated for use as a rinse agent in co-solvent cleaning applications. (Such cleaning applications are taught, for example, in International Patent Publication No. WO 92/22678 (Petroferm Inc.). Organic esters such as methyl decanoate have found utility as solvating agents in two-phase cleaning applications using perfluorohexane as the carrier liquid and rinse agent.) Methyl decanoate and C4F9OC2F4H were placed in separate containers and heated to 50° C. in an ultrasonic bath. A 50 mm×25 mm×1.5 mm aluminum coupon was contaminated with 0.0831 g of a light hydrocarbon oil. The contaminated coupon was first immersed in the methyl decanoate for about 60 seconds and then immersed in the C4F9OC2F4H for about 60 seconds. The C4F9OC2F4H rinsed 100 percent (as determined by weight difference) of the oil and the methyl decanoate from the coupon.

[4] = Solubilities of selected hydrocarbon solvents in the ether hydride (precision cleaning); assay type: physicochemical
Procedure: A sample of this compound was evaluated for use in precision cleaning applications by measuring the solubilities of selected hydrocarbon solvents in the sample.

[5] = Comparative boiling points; assay type: physicochemical
Text: The unexpectedly low boiling points of compounds of the present invention render the compounds useful in processes involving temperature-sensitive substrates such as plastics. (For example, in vapor-phase cleaning, a substrate is rinsed in the condensing vapor of a boiling fluid, and in condensation heating, a substrate is heated by immersion in a boiling fluid.) In such applications, a lower-boiling fluid is preferred so as to avoid damage to the substrate. While it is known that boiling points can be reduced by selection of a compound having fewer carbon atoms, this may result in a boiling point reduction of 25° C. or more, in addition to adversely affecting other properties such as solvency.

SMILES: FC(F)C(F)(F)OC(F)(F)C(F)(F)C(F)(F)C(F)(F)F [C4F9OC2F4H, C4F9—O—C2F4H]
- Extinguishment concentration [1]: 5.6 vol. %
- Time for all water to be displaced [2]: ≤ 60 s
- Oil and methyl decanoate rinsed from the coupon (by weight difference) [3]: 100%
- Solubility of chloroform in the ether hydride ([4]; Chloroform): 45 % by weight
- Solubility of ethylene glycol in the ether hydride ([4]; Ethylene glycol): less than 15 % by weight
- Solubility of hydrocarbon solvent in the ether hydride ([4]; hexane, heptane, toluene, acetone, 2-butanone, 4-methyl-2-pentanone, ethyl acetate, methanol, ethanol, isopropanol, dimethyl formamide, trans-1,2-dichloroethylene, isopropyl ether): up to 50 % by weight
- Solubility of light hydrocarbon oil in the ether hydride ([4]; light hydrocarbon oil): less than 0.05 % by weight
- Solubility of o-xylene in the ether hydride ([4]; o-Xylene): 19 % by weight

SMILES: FC(F)C(F)(F)C(F)(F)C(F)(F)C(F)(F)OC(F)(F)C(F)(F)C(F)(F)C(F)(F)C(F)(F)F [C5F11OC5F10H, C5F11—O—(CF2)5H]
- Boiling Point [5]: 150 °C

SMILES: FC(F)C(F)(F)C(F)(F)C(F)(F)OC(F)(F)C(F)(F)C(F)(F)C(F)(F)C(F)(F)C(F)(F)F [C6F13OC4F8H, C6F13—O—C4F8—H]
- Boiling Point [5]: 149 °C

SMILES: FC(F)C(F)(F)OC(F)(F)C(F)(F)C(F)(F)C(F)(F)C(F)(F)C(F)(F)C(F)(F)F [C7F15OC2F4H, C7F15—O—C2F4H]
- Boiling Point [5]: 131 °C

SMILES: FC(F)C(F)(F)C(F)(F)C(F)(F)C(F)(F)C(F)(F)C(F)(F)C(F)(F)C(F)(F)F [C8F17CF2H, reference compound]
- Boiling Point [5]: 136 °C

SMILES: FC(F)C(F)(F)OC(F)(F)C(F)(F)C(F)(F)C(F)(F)C(F)(F)C(F)(F)C(F)(F)C(F)(F)F [C8F17OC2F4H, C8F17—O—C2F4H]
- Boiling Point [5]: 148 °C

SMILES: FC(F)OC(F)(F)C(F)(F)C(F)(F)C(F)(F)C(F)(F)C(F)(F)C(F)(F)C(F)(F)F [C8F17OCF2H, C8F17—O—CF2H]
- Boiling Point [5]: 139 °C

SMILES: FC(F)C(F)(F)C(F)(F)C(F)(F)C(F)(F)C(F)(F)C(F)(F)C(F)(F)C(F)(F)C(F)(F)F [C9F19CF2H, reference compound]
- Boiling Point [5]: 154 °C

SMILES: FC(F)OC(F)(F)C(F)(F)C(F)(F)C(F)(F)C(F)(F)C(F)(F)C(F)(F)C(F)(F)C(F)(F)F [C9F19OCF2H]
- Boiling Point [5]: 155 °C

SMILES: FC(F)C(F)(F)C(F)(F)OC(F)(F)C(F)(F)C(F)F [HC3F6OC3F6H]
- Extinguishment concentration [1]: 5.7 vol. %

SMILES: FC(F)(F)C(F)(F)C(F)(F)C(F)(F)C(F)(F)C(F)(F)F [perfluorohexane, reference compound]
- Oil and methyl decanoate rinsed from the coupon (by weight difference) [3]: 98.5%
